We go through 1 compound from US7173021B2, “Synthesis of temozolomide esters as potent anticancer pro-drugs for topical and transdermal applications in treatments of cancers” (Tianjin North Pharm Sci-Tech Co., Ltd., priority 2004, dated 2007).

In brackets after ≈: the same amount, converted by molar mass. A value given as a limit tells only on which side of the number the result lay.

The IC50 is the point on the concentration scale where inhibition reaches its midpoint. Low readings indicate higher potency, high ones lower potency.

Series [1] has as its system TJ899 (human glioma). Briefly: In vitro tumour cell growth inhibition (MTT), TJ899. It counts as cell-based. Particulars: Homo sapiens, Table 2 experiment, 96 h. The procedure: (§1) Temozolomide (white powder), temozolomide acid (white powder) and temozolomide-8-carboxylate hexyl (white scale crystal) were made in house. For the estimation of in vitro tumour cell growth inhibition, MV3 (human melanoma), M14 (human melanoma), B16 and B16-BL6 (mouse melanoma), SHG-44, TJ899 and TJ905 (human glioma), MCF-7 (human breast), HCT-8 (human colon), A549 (human non small lung), Bel7402 (human hepatocellulor), and BGC-823 (human stomach) were used. All tumour cells were cultured in RPMI-1640 medium supplemented with 10% fetal bovine serum (FBS) at 37° C. in a humidified 5% CO2 incubator.
(§2) After being harvested from culture flasks, a cell suspension of 1×10^4/ml was made by using 1640 RPMI medium supplemented with 10% fetal bovine serum. 100 μl (contains 1000 tumour cells) of the cell suspension was seeded per well of 96-well flat-bottom Costar culture plates at 37° C. in a humidified 5% CO2 incubator for 24 hrs before introducing drugs. Each tested compounds was made for five different concentrations and 100 μl of the each concentration was introduced into parallel three wells; control wells were added with 100 μl of plain medium alone; fluorouracil (a chemotherapeutic antitumour drug) was used as the positive control. Cells were then incubated for 96 h. Proliferative response and cell death were determined using MTT (3-(4,5-dimethylthiazolyl)-2,5-diphenyl-tetrazolium bromide) assay.
(§3) MTT assay: Following incubation of cells with the tested compounds for 96 h, 100 μl of 0.4 mg/ml MTT in RPMI 1640 was added to each well and the plate was incubated at 37° C. for 4 h. The plate was then centrifuged and followed by removal of medium. 150 μl of DMSO was then added to dissolve formazan crystal. DMSO-added plates were placed on a plate shaker for 5 min and absorbance was measured spectrophotometrically at 540 nm (with reference wavelength at 450 nm) using a Benchmark microtiter plate reader (Bio-Rad 550, Bio-Rad Laboratories, CA, U.S.A.).
(§4) The IC50 was calculated from the curve of the tested compound concentrations against the inhibition rate of the tumour cells. Table 1 summarized the experiment results by using six human cancer cell lines, HCT-8 (colon carcinoma), A549 (non small lung carcinoma), MCF-7 (breast), Bel7402 (hepatocellulor carcinoma), BGC-823 (stomach adenocarcinoma), and MV3 (melanoma). Table 2 summarized the results from the experiment results by using two human melanoma cell lines, MV3 and M14, two mouse melanoma cell lines, B16 and B16-BL6, and three human glioma cell lines, TJ899, SHG-44 and TJ905.

Series [2] has as its system Bel7402 (human hepatocellulor). Briefly: In vitro tumour cell growth inhibition (MTT), Bel-7402. It counts as cell-based. Particulars: Table 1 experiment, 96 h. The procedure: as §1, §2, §3
(§5) The IC50 was calculated from the curve of the tested compound concentrations against the inhibition rate of the tumour cells. […]

The test system of series [3] is MV3 (human melanoma). In words: In vitro tumour cell growth inhibition (MTT), MV3. It counts as cell-based. Particulars: Homo sapiens, 96 h. The procedure:
as §1, §2, §3, §4

For series [4], the system named is HCT-8 (human colon). In words: In vitro tumour cell growth inhibition (MTT), HCT-8. It counts as cell-based. The conditions noted are these: Table 1 experiment, 96 h. The procedure: as §1, §2, §3, §5
Series [5] is described as follows: In vitro permeation, Franz diffusion cell, silicone membrane. It counts as in vitro ADME. The conditions noted are these: 37° C., 8 h, FIGS. 3-5. The text has this: Jacketed Franz-type diffusion cells were used throughout the study and the barrier (12) (skin or silicone membrane) was mounted between the two chambers (14, 16) (2.8–3.4 cm^2 available surface area) with the dermal side in contact with the receiver solution (FIG. 2). The diffusion chambers (10) comprised a barrier of skin or silicone membrane (12) mounted between two chambers (14, 16). A cap (18) formed the donor compartment (14). The second receptor compartment (16) contained a receptor cell (20) with a stirring bar (22), sampling port (24) and cover (26). The stirring bar (22) was stirred by means of a magnet plate (28) having a rotating magnet. The receptor compartment comprised a water jacket (30) having a water inlet (32) and a water outlet (34).
Three types of materials were used in permeation studies. • 1. Silicone membrane (Silastic Medical Grade, 500-5, Dow Corning 0.005 in thick) was cut into circular sections (2 cm diameter) and washed with double distilled water prior to use. • 2. Full-thickness rat skin was obtained from Male Wistar rats aged 10 to 12 weeks and weighing 250 to 300 g, which were sacrificed by cervical dislocation, the abdomen shaved and the intact skin removed by dissection. Following removal of fat tissue, the skin was cut into circular pieces and used immediately. • 3. Samples of adult human epidermis were purchased from the Stephen Kirby Skin Bank (UK). The samples were from the leg, were stored at −18° C. and used within one week. Experiments
The membrane (as detailed above) was mounted on the diffusion cell (10), on which the surface area available for diffusion of each cell was about 2.8–3.4 cm^2. The cell cap (18) was placed on the membrane (12), and it was sealed with Parafilm® connecting the cell cap, membrane, and receptor cell. The capacity of each receptor cell was around 25–26 ml, which was filled with receptor solution and was completely in contact with the membrane sheet. During the course of experiment, the solution was continuously stirred by teflon-coated magnetic bar (22) placed in the cell (20). The temperature was maintained at 37° C. by a thermostatic water pump that circulated the water through the jacket (30) surrounding the cell body. The system was allowed to equilibrate under these conditions for half an hour. Finally, the prepared sample solution (2 ml) was added into the donor cap cell, and it was sealed with Parafilm® to minimize the evaporation of donor solution. 1 ml of receptor solution was removed every 30 minutes for 5 hours and then every 60 minutes for a further 3 hours. The volumes withdrawn were always replaced with equal volumes of fresh receptor solution to maintain constant volume. The concentration of each sample solution was determined by using HPLC.
For every sample, six determinations were performed on human and rat skin, and three determinations were carried out through artificial silicone membrane.
As stated above, after the removal of receptor solution, the receiver compartment was refilled with an identical volume of receptor fluid. This causes of the dilution of receptor solution leading to an under determination of the sample concentration. As a consequence, it was necessary to mathematically correct each successive sample concentrations, in the present invention, which was determined by applying the following equation:
[formula] where Ct is the actual current concentration of drug in the receptor phase at time t, Cmt is the apparent (i.e. measured) current concentration of drug in the receptor phase, Vs is the sample volume withdrawn for analysis, Vr is the volume of receptor solution, and ΣCm is the summed total of the previous measured concentrations.
Finally, the amount of drug penetrating the skin per unit area was calculated by dividing the obtained concentrations by the surface area available for diffusion cell and this value was different for each individual cell. […]

`CCCCCCOC(=O)c1ncn2c(=O)n(C)nnc12` [temozolomide hexyl ester, Hexyl 3,4-dihydro-3-methyl-4-oxoimidazo[5,1-d]-1,2,3,5-tetrazine-8-carboxylate]: the IC50 was greater than 100 µg/mL in series [1]; 27.2 µg/mL (≈ 97.4 µM) in series [2]; 8.84 µg/mL (≈ 31.6 µM) in series [3] (Table 1 experiment); 25 µg/mL (≈ 89.5 µM) in series [3] (Table 2 experiment (separate)); 28.6 µg/mL (≈ 103 µM) in series [4]. The “Permeation through synthetic silicone membrane” value in series [5] is listed as “passed through the membrane far more efficiently”.
